Among the data in patent US10954252B1, “Inhibitors of human immunodeficiency virus replication” (ViiV HEALTHCARE UK (NO.5) LIMITED, priority 2017, dated 2021) are EC50 and CC50 values, retold here.

SMILES strings stand for the structures. Counter-ions that a name gives are not always drawn. Some results are limits rather than exact numbers.

As usually defined, the EC50 is the concentration giving half of the maximal effect. A word on the CC50: it is the concentration at which the toxic effect on the cells reaches its halfway point. High values mean better tolerance by the cells, low ones harm at low concentration.

Common to all, as to format: cell-based
In data set [1] the test system is recombinant NL4-3 virus (nef section replaced with Renilla luciferase gene) in MT-2 cells. The data set is described as follows: HIV cell culture assay (antiviral activity, luciferase readout). To be noted: MT-2 cells infected for 4-5 days with recombinant NL4-3 luciferase virus. Put shortly:
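NL4-3 reporter virus carrying Renilla luciferase in place of part of nef, produced in 293T cells, was used to infect MT-2 cells for 4-5 days with serial compound dilutions. Luciferase activity was read with a live-cell substrate; EC50 derived from the median effect equation.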

Data set [2] has as its system uninfected MT2 cells. The data set is described as follows: Compound cytotoxicity, XTT-based colorimetric assay. Conditions: Table 1a, day 4, XTT. The essentials:
(§1)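 CC50 from uninfected MT2 cells run under the antiviral-assay protocol without virus. Viability read on day 4 by XTT colorimetric assay.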
(Formazan colour is commonly taken as a measure of viable cells.)

Test in data set [3]: as above
Conditions: human, uninfected MT2 cells, day 4, XTT. The essentials:
as §1

For the molecule `COc1ccc2c(=O)n(-c3ccc(Cl)c4c(NS(C)(=O)=O)nn(CC(F)F)c34)c([C@H](Cc3cc(F)cc(F)c3)NC(=O)Cn3ccc(C4CC4)n3)nc2n1` (atropisomer, axis not shown) [Example 55.2, N-[(1S)-1-{3-[4-chloro-1-(2,2-difluoroethyl)-3-methanesulfonamido-1H-indazol-7-yl]-7-methoxy-4-oxo-3H,4H-pyrido[2,3-d]pyrimidin-2-yl}-2-(3,5-difluorophenyl)ethyl]-2-(3-cyclopropyl-1H-pyrazol-1-yl)acetamide], in data set [1] (Table 1a), the EC50 amounted to 0.33 nM. Also, the 50% cytotoxic concentration (CC50) in data set [2] is > 1000 nM.

With `COc1ccc2c(=O)n(-c3ccc(Cl)c4c(NS(C)(=O)=O)nn(C)c34)c([C@H](Cc3cc(F)cc(F)c3)NC(=O)Cn3ccc(C4CC4)n3)nc2n1` (mixture of isomers) [Example 58.2, N-[(1S)-1-[3-(4-chloro-3-methanesulfonamido-1-methyl-1H-indazol-7-yl)-7-methoxy-4-oxo-3H,4H-pyrido[2,3-d]pyrimidin-2-yl]-2-(3,5-difluorophenyl)ethyl]-2-(3-cyclopropyl-1H-pyrazol-1-yl)acetamide], the EC50 in data set [1] (Table 1a) is 0.168 nM. Besides, in data set [2], the half-maximal cytotoxic concentration (CC50) was > 1000 nM.

`Cn1nc(NS(C)(=O)=O)c2c(Cl)ccc(-n3c([C@H](Cc4cc(F)cc(F)c4)NC(=O)Cn4nc(C(F)F)c5c4C(F)(F)[C@@H]4C[C@H]54)nc4cc(Cl)ccc4c3=O)c21` (mixture of isomers) [Example 168, N—((S)-1-(7-chloro-3-(4-chloro-1-methyl-3-(methylsulfonamido)-1H-indazol-7-yl)-4-oxo-3,4-dihydroquinazolin-2-yl)-2-(3,5-difluorophenyl)ethyl)-2-((3bS,4aR)-3-(difluoromethyl)-5,5-difluoro-3b,4,4a,5-tetrahydro-1H-cyclopropa[3,4]cyclopenta[1,2-c]pyrazol-1-yl)acetamide]: the EC50 in data set [1] (Table 1a) stood at 0.058 nM. The CC50 in data set [2] is > 1000 nM.

For the molecule `COc1cccc2nc([C@H](Cc3cc(F)cc(F)c3)NC(=O)Cn3nc(C(F)F)c4c3C(F)(F)[C@@H]3C[C@H]43)n(-c3ccc(Cl)c4c(NS(C)(=O)=O)nn(C)c34)c(=O)c12` (mixture of isomers) [Example 170, N—((S)-1-(3-(4-chloro-1-methyl-3-(methylsulfonamido)-1H-indazol-7-yl)-5-methoxy-4-oxo-3,4-dihydroquinazolin-2-yl)-2-(3,5-difluorophenyl)ethyl)-2-((3bS,4aR)-3-(difluoromethyl)-5,5-difluoro-3b,4,4a,5-tetrahydro-1H-cyclopropa[3,4]cyclopenta[1,2-c]pyrazol-1-yl)acetamide], the EC50 in data set [1] (Table 1a) was found to be 0.052 nM. Moreover, the CC50 in data set [2] was > 1000 nM.

In the case of `Cn1nc(NS(C)(=O)=O)c2c(Cl)ccc(-n3c([C@H](Cc4cc(F)cc(F)c4)NC(=O)Cn4nc(C(F)F)c5c4C(F)(F)[C@@H]4C[C@H]54)nc4cc(C5CC5)ccc4c3=O)c21` (mixture of isomers) [Example 198, N—((S)-1-(3-(4-chloro-1-methyl-3-(methylsulfonamido)-1H-indazol-7-yl)-7-cyclopropyl-4-oxo-3,4-dihydroquinazolin-2-yl)-2-(3,5-difluorophenyl)ethyl)-2-((3bS,4aR)-3-(difluoromethyl)-5,5-difluoro-3b,4,4a,5-tetrahydro-1H-cyclopropa[3,4]cyclopenta[1,2-c]pyrazol-1-yl)acetamide], the 50% effective concentration (EC50) in data set [1] (Table 1a) was determined as 0.15 nM. In data set [2], the cytotoxic concentration (CC50) is > 1000 nM.

For the molecule `Cn1nc(NS(C)(=O)=O)c2c(Cl)ccc(-n3c([C@H](Cc4cc(F)cc(F)c4)NC(=O)Cn4nc(C(F)F)c5c4C(F)(F)[C@@H]4C[C@H]54)nc4cc(S(C)(=O)=O)ccc4c3=O)c21` (mixture of isomers) [Example 200, N—((S)-1-(3-(4-chloro-1-methyl-3-(methylsulfonamido)-1H-indazol-7-yl)-7-(methylsulfonyl)-4-oxo-3,4-dihydroquinazolin-2-yl)-2-(3,5-difluorophenyl)ethyl)-2-((3bS,4aR)-3-(difluoromethyl)-5,5-difluoro-3b,4,4a,5-tetrahydro-1H-cyclopropa[3,4]cyclopenta[1,2-c]pyrazol-1-yl)acetamide], the EC50 in data set [1] (Table 1a) is 0.2 nM. In data set [2], the cytotoxic concentration (CC50) is > 1000 nM.

As to `O=C(Cn1nc(C(F)F)c2c1C(F)(F)[C@@H]1C[C@H]21)N[C@@H](Cc1cc(F)cc(F)c1)c1nc2ccccc2c(=O)n1-c1ccc(S(=O)(=O)N2CCOCC2)cc1` [Example 165, 2-((3bS,4aR)-3-(difluoromethyl)-5,5-difluoro-3b,4,4a,5-tetrahydro-1H-cyclopropa[3,4]cyclopenta[1,2-c]pyrazol-1-yl)-N—((S)-2-(3,5-difluorophenyl)-1-(3-(4-(morpholinosulfonyl)phenyl)-4-oxo-3,4-dihydroquinazolin-2-yl)ethyl)acetamide], the concentration giving a half-maximal response (EC50) in data set [1] (Renilla, NL43, Table 1a) turned out to be 0.23 nM. In data set [3] (Table 1a), the 50% cytotoxic concentration (CC50) at 4 days was > 10000 nM.

As to `CSc1nc2nc(C(Cc3cc(F)cc(F)c3)NC(=O)Cn3nc(C(F)F)c4c3C(F)(F)[C@@H]3C[C@H]43)c(-c3ccc(Cl)c4c(NS(C)(=O)=O)nn(C)c34)cc2s1` (stereo partly drawn) [Example 193, N-(1-(6-(4-chloro-1-methyl-3-(methylsulfonamido)-1H-indazol-7-yl)-2-(methylthio)thiazolo[4,5-b]pyridin-5-yl)-2-(3,5-difluorophenyl)ethyl)-2-((3bS,4aR)-3-(difluoromethyl)-5,5-difluoro-3b,4,4a,5-tetrahydro-1H-cyclopropa[3,4]cyclopenta[1,2-c]pyrazol-1-yl)acetamide], the EC50 in data set [1] (Renilla, NL43, Table 1a) was 0.18 nM. Also, the CC50 at 4 days in data set [3] (Table 1a) was > 10000 nM.

`Cn1nc(NS(C)(=O)=O)c2c(Cl)ccc(-n3c([C@H](Cc4cc(F)cc(F)c4)NC(=O)Cc4c[nH]c5ccc(O)cc45)nc4cc(CS(C)(=O)=O)ccc4c3=O)c21` [Example 203, (S)—N-(1-(3-(4-chloro-1-methyl-3-(methylsulfonamido)-1H-indazol-7-yl)-7-((methylsulfonyl)methyl)-4-oxo-3,4-dihydroquinazolin-2-yl)-2-(3,5-difluorophenyl)ethyl)-2-(5-hydroxy-1H-indol-3-yl)acetamide]: in data set [1] (Table 1a), the EC50 was found to be 166 nM. The CC50 at 4 days in data set [3] (Table 1a) was > 1000 nM.

Turning to `CC(C)(c1ccc2c(=O)n(-c3ccc(Cl)c4c(NS(C)(=O)=O)nn(CC(F)F)c34)c([C@H](Cc3cc(F)cc(F)c3)NC(=O)Cn3nc(C(F)F)c4c3C(F)(F)[C@@H]3C[C@H]43)nc2c1)S(C)(=O)=O` [Example 213, N—((S)-1-(3-(4-chloro-1-(2,2-difluoroethyl)-3-(methylsulfonamido)-1H-indazol-7-yl)-7-(2-(methylsulfonyl)propan-2-yl)-4-oxo-3,4-dihydroquinazolin-2-yl)-2-(3,5-difluorophenyl)ethyl)-2-((3bS,4aR)-3-(difluoromethyl)-5,5-difluoro-3b,4,4a,5-tetrahydro-1H-cyclopropa[3,4]cyclopenta[1,2-c]pyrazol-1-yl)acetamide], in data set [1] (Renilla, NL43, Table 1a), the concentration for a half-maximal effect (EC50) was 0.28 nM. For the same molecule, the cytotoxic concentration (CC50) at 4 days in data set [3] (Table 1a) was > 1000 nM.

As for `CC(C)(c1ccc2c(=O)n(-c3ccc(Cl)c4c(NS(=O)(=O)C5CC5)nn(CC(F)F)c34)c([C@H](Cc3cc(F)cc(F)c3)NC(=O)Cn3nc(C(F)F)c4c3C(F)(F)[C@@H]3C[C@H]43)nc2c1)S(C)(=O)=O` [Example 214, N—((S)-1-(3-(4-chloro-3-(cyclopropanesulfonamido)-1-(2,2-difluoroethyl)-1H-indazol-7-yl)-7-(2-(methylsulfonyl)propan-2-yl)-4-oxo-3,4-dihydroquinazolin-2-yl)-2-(3,5-difluorophenyl)ethyl)-2-((3bS,4aR)-3-(difluoromethyl)-5,5-difluoro-3b,4,4a,5-tetrahydro-1H-cyclopropa[3,4]cyclopenta[1,2-c]pyrazol-1-yl)acetamide, TFA], the EC50 in data set [1] (Renilla, NL43, Table 1a) was 0.071 nM. Moreover, the CC50 at 4 days in data set [3] (Table 1a) is > 1000 nM.

Regarding `CC(C)(C)c1ccc2c(=O)n(-c3ccc(Cl)c4c(NS(C)(=O)=O)nn(CC(F)F)c34)c([C@H](Cc3cc(F)cc(F)c3)NC(=O)Cn3nc(C(F)F)c4c3C(F)(F)[C@@H]3C[C@H]43)nc2c1` [Example 217, N—((S)-1-(7-(tert-Butyl)-3-(4-chloro-1-(2,2-difluoroethyl)-3-(methylsulfonamido)-1H-indazol-7-yl)-4-oxo-3,4-dihydroquinazolin-2-yl)-2-(3,5-difluorophenyl)ethyl)-2-((3bS,4aR)-3-(difluoromethyl)-5,5-difluoro-3b,4,4a,5-tetrahydro-1H-cyclopropa[3,4]cyclopenta[1,2c]pyrazol-1-yl)acetamide], the EC50 in data set [1] (Renilla, NL43, Table 1a) amounted to 0.25 nM. Besides, in data set [3] (Table 1a), the CC50 at 4 days is > 1000 nM.

For the molecule `CC(C)(C)c1ccc2c(=O)n(-c3ccc(Cl)c4c(NS(=O)(=O)C5CC5)nn(CC(F)F)c34)c([C@H](Cc3cc(F)cc(F)c3)NC(=O)Cn3nc(C(F)F)c4c3C(F)(F)[C@@H]3C[C@H]43)nc2c1` [Example 218, N—((S)-1-(7-(tert-Butyl)-3-(4-chloro-3-(cyclopropanesulfonamido)-1-(2,2-difluoroethyl)-1H-indazol-7-yl)-4-oxo-3,4-dihydroquinazolin-2-yl)-2-(3,5-difluorophenyl)ethyl)-2-((3bS,4aR)-3-(difluoromethyl)-5,5-difluoro-3b,4,4a,5-tetrahydro-1H-cyclopropa[3,4]cyclopenta[1,2-c]pyrazol-1-yl)acetamide], in data set [1] (Renilla, NL43, Table 1a), the EC50 is 0.73 nM. Also, the half-maximal cytotoxic concentration (CC50) at 4 days in data set [3] (Table 1a) is > 1000 nM.

As to `C[Si](C)(C)CCOCn1ncc2nc(C(Cc3cc(F)cc(F)c3)NC(=O)Cc3c[nH]c4ccc(F)cc34)c(-c3ccc4scnc4c3)cc21` (stereo not shown) [Int 6a, N-(1-(6-(benzo[d]thiazol-5-yl)-1-((2-(trimethylsilyl)ethoxy)methyl)-1H-pyrazolo[4,3-b]pyridin-5-yl)-2-(3,5-difluorophenyl)ethyl)-2-(5-fluoro-1H-indol-3-yl)acetamide], the EC50 in data set [1] (Renilla, NL43, Table 1) turned out to be 110 nM. In data set [3] (Table 1), this molecule gave a CC50 at 4 days of 29200 nM.
